The values that follow come from patent publication US11813277B2, “Methods and agents for modulating inflammation” (The Regents of the University of California, priority 2018, dated 2023).

The subject of assay [1] is isolated rat liver mitochondria. Description: ADP- vs FCCP-stimulated respiration in isolated liver mitochondria. The format is biochemical. The settings on record: high etomoxir (100 μM), pyruvate/malate. As to the method:
Mouse liver mitochondria were isolated according to standard techniques (Rogers, G. W., Brand, M. D., Petrosyan, S., Ashok, D., Elorza, A. A., Ferrick, D. A., and Murphy, A. N. (2011) High throughput microplate respiratory measurements using minimal quantities of isolated mitochondria. PLoS One. 6, e21746). The liver from a male mouse was minced and rinsed several times in MSHE [70 mM sucrose, 210 mM mannitol, 5 mM HEPES (pH 7.2), and 1 mM EGTA with 0.5% (w/v) fatty acid-free BSA] to remove blood. Tissue was disrupted using a drill-driven Teflon-on-glass Dounce homogenizer (between 2-4 strokes). The homogenate was centrifuged at 800 g for 10 min and the supernatant was filtered through cheesecloth and centrifuged at 8000 g for 10 min. […]
Phosphorylating respiration was measured in isolated liver mitochondria (1.5 μg/well) as previously described (Rogers, G. W., Brand, M. D., Petrosyan, S., Ashok, D., Elorza, A. A., Ferrick, D. A., and Murphy, A. N. (2011) High throughput microplate respiratory measurements using minimal quantities of isolated mitochondria. PLoS One. 6, e21746), and offered 10 mM pyruvate, 1 mM malate, and 4 mM ADP. Uncoupler stimulated respiration was measured after addition of oligomycin (3 ng/mg mitochondrial protein) and FCCP (4 μM). […]

For assay [2], the target named is T1, CPT-1 (Homo sapiens, UniProt P50416).
T1 sequence (P50416 1-773): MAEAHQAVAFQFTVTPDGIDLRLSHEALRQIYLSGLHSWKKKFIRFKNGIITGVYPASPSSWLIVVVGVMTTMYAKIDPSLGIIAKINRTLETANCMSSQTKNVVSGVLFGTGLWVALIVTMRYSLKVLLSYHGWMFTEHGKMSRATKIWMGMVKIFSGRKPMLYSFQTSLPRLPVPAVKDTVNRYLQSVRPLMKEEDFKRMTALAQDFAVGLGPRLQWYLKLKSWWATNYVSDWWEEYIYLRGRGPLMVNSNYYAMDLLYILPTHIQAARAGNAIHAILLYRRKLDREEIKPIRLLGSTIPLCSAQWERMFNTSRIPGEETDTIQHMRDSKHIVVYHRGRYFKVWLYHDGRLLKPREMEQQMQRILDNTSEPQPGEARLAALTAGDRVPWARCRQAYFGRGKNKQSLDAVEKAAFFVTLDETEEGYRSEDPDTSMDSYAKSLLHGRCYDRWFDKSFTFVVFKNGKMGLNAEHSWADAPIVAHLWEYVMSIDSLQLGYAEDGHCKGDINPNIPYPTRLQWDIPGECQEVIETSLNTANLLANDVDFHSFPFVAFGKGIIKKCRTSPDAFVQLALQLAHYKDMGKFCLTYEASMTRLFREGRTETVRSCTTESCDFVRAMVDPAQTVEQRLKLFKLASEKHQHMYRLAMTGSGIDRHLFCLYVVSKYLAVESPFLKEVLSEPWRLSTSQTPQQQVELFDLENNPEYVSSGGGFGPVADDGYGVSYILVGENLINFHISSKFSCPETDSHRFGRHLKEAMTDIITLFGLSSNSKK
Description: Palmitoyl CoA-driven respiration in permeabilized A549 cells. The format is cell-based. More on the design: endogenous in cells; host or cells: A549 (A6).

Assay [3] relates to A549, HCT116, cortical neurons, cortical astrocytes, BMDM, NRVM. Description: Respiration in intact cells offered glucose, glutamine, pyruvate (six cell types). The format is cell-based. As to the method:
All respirometry studies were conducted in either a Seahorse XF96 or XFe96 Analyzer. All experiments were conducted at 37° C., and at pH 7.4 (intact cells) or 7.2 (permeabilized cells and isolated mitochondria). Calculation of respiratory parameters was made according to standard protocols (Divakaruni, A. S., Paradyse, A., Ferrick, D. A., Murphy, A. N., and Jastroch, M. (2014a) Analysis and interpretation of microplate-based oxygen consumption and pH data. Meth. Enzym 547, 509-54), and all rates were corrected for non-mitochondrial respiration/background signal by subtracting the oxygen consumption rate insensitive to rotenone plus antimycin A.
When diagnosing an off-target effect of etomoxir (FIG. 5A, FIG. 5B, FIG. 5C), all cells apart from primary neurons were offered 8 mM glucose, 2 mM glutamine, and 2 mM pyruvate in unbuffered DMEM supplemented with 5 mM HEPES. […] Respiration in all intact cells was measured in the basal state as well as in response to 2 μM oligomycin, FCCP (either 400 nM, 800 nM or 1.2 μM as appropriate and previously optimized), and 0.2 μM rotenone with 1 μM antimycin A. Etomoxir (at concentrations indicated in the text), UK5099 (3 μM), or BPTES (3 μM) were added to the assay medium 30 min prior to measurements.

Molecules are shown by their SMILES.

In the case of `CCOC(=O)[C@@]1(CCCCCCOc2ccc(Cl)cc2)CO1` [etomoxir], in assay [1], the “respiration driven by ADP versus FCCP” value is recorded as “greater inhibitory effect on respiration driven by ADP versus FCCP”. For the same compound, in assay [2], the “EC50, FCCP-stimulated palmitoyl CoA-driven respiration” value is “nanomolar” and the “concentration of saturable effect” value is “less than 3 μM”. For the same compound, the maximal respiratory rate entry in assay [3] (3 μM etomoxir, no fatty acids or carnitine) is on record as “did not inhibit respiration”. Also, the “ATP-linked vs uncoupler-stimulated respiration” value in assay [3] (increasing, high concentrations of etomoxir) is recorded as “disproportionately inhibited ATP-linked respiration relative to uncoupler-stimulated respiration”.
